According to paper PMC5681660, “Reduced hepatitis B and D viral entry using clinically applied drugs as novel inhibitors of the bile acid transporter NTCP” (Scientific Reports, 2017):
Where a name gives a salt, the structure may show the parent alone.

Molecular target: T1, human NTCP (Homo sapiens, UniProt Q14973)
T1 sequence (Q14973 1-349): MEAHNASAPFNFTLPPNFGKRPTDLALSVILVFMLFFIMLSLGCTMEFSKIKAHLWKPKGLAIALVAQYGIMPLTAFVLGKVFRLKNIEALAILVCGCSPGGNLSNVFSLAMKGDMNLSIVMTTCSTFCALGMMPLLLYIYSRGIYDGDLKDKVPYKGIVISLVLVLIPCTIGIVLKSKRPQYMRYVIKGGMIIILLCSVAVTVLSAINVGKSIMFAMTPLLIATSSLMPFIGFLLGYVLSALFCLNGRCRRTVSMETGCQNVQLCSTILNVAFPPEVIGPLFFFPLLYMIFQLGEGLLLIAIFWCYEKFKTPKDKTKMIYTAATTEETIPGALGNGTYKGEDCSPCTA
Assay: Screening taurocholate uptake assay (96-well, [14C]taurocholate, 10 µM drug)
Settings: for B-score functional assay: screening taurocholate uptake, 10 µM drug

[1] = ranking over the functional and the binding screening assay
[2] = combined ranking of functional and binding screening assays

CC(=O)O[C@]1(C(C)=O)CC[C@H]2[C@@H]3C=C(Cl)C4=CC(=O)CC[C@]4(C)[C@H]3CC[C@@]21C [Chlormadinone acetate]
Ranking score [1]: 87.43 | B-score functional assay: -1.751

CC(CN(C)C)CN1c2ccccc2CCc2ccccc21.O=C(O)/C=C\C(=O)O (centres unmarked) [Trimipramine maleate salt]
Ranking score [1]: 129.248 | B-score functional assay: -0.962

CNCCc1ccccn1.CS(=O)(=O)O.CS(=O)(=O)O [Betahistine mesylate]
Ranking score [1]: 145.348 | B-score functional assay: -5.129

CN(C)CCCOc1nn(Cc2ccccc2)c2ccccc12 [Benzydamine hydrochloride]
Ranking score [2]: 571.97 | B-score functional assay: 0.075

CCCCCN(C)CCC(O)(P(=O)([O-])O)P(=O)(O)O.[Na+] [Ibandronate sodium]
Ranking score [1]: 183.606 | B-score functional assay: 0.015

CCC(COC(=O)c1cc(OC)c(OC)c(OC)c1)(c1ccccc1)N(C)C (centres unmarked) [Trimebutine]
Ranking score [2]: 579.884 | B-score functional assay: -0.018

CC1CCc2c(N3CCC(O)CC3)c(F)cc3c(=O)c(C(=O)O)cn1c23 (centres unmarked) [Nadifloxacin]
Ranking score [2]: 1251.94 | B-score functional assay (B-score): 3.94

CCCOc1ccccc1-c1nc2nn[nH]c2c(=O)[nH]1 [Zaprinast]
Ranking score [1]: 188.481 | B-score functional assay: -1.838

C[n+]1ccccc1/C=N/O [Pralidoxime chloride]
Ranking score [2]: 600.675 | B-score functional assay: -0.006

CN/C(=N/CCSCc1nc[nH]c1C)NC#N [Cimetidine]
Ranking score [1]: 269.583 | B-score functional assay: -0.365

CN1CCC(=C2c3ccccc3Sc3ccccc32)CC1 [Pimethixene maleate]
Ranking score [2]: 556.525 | B-score functional assay: -0.824

Cn1cnc2c1c(=O)[nH]c(=O)n2C [Theobromine]
Ranking score [2]: 527.693 | B-score functional assay: -0.75

NCCc1c[nH]c2ccc(O)cc12 [Serotonin hydrochloride]
Ranking score [1]: 107.778 | B-score functional assay: 0.952

c1ccc2c(c1)Nc1ccccc1S2 [Phenothiazine]
Ranking score [2]: 553.972 | B-score functional assay: -0.168

Cc1c(O)c(=O)n(-c2ccccc2)n1C [Antipyrine, 4-hydroxy]
Ranking score [1]: 262.114 | B-score functional assay: -1.78

CC[N+](CC)(CC(=O)Nc1c(C)cccc1C)Cc1ccccc1 [Denatonium benzoate]
Ranking score [2]: 531.85 | B-score functional assay: -0.069

C#C[C@]1(O)CC[C@H]2[C@@H]3CCc4cc(O)ccc4[C@H]3CC[C@@]21C [Ethinylestradiol]
Ranking score [1]: 213.127 | B-score functional assay: -1.799

O=C(O)CCCC[C@@H]1SC[C@@H]2NC(=O)N[C@@H]21 [Biotin]
Ranking score [1]: 66.9328 | B-score functional assay: -2.274

CN1CCCN=C1/C=C/c1cccs1.O=C(O)C(O)C(O)C(=O)O [Pyrantel tartrate]
Ranking score [2]: 600.829 | B-score functional assay: -0.111

COC(=O)Nc1nc2ccc(SC(C)C)cc2[nH]1 [Methiazole]
Ranking score [1]: 275.739 | B-score functional assay: -0.825

Cl.Cl.OCCN1CCN(CC/C=C2/c3ccccc3Sc3ccc(Cl)cc32)CC1 [Zuclopenthixol dihydrochloride]
Ranking score [1]: 243.28 | B-score functional assay: -0.306

COC1=CC(=O)C[C@@H](C)[C@]12Oc1c(Cl)c(OC)cc(OC)c1C2=O [Griseofulvin]
Ranking score [2]: 477.468 | B-score functional assay: -0.69

CCOC(=O)NNc1nncc2ccccc12 [Todralazine hydrochloride]
Ranking score [1]: 269.251 | B-score functional assay: -1.372

Clc1ccc(Nc2nnc(Cc3ccncc3)c3ccccc23)cc1 [Vatalanib]
Ranking score [1]: 181.191 | B-score functional assay: -2.979

CCOC(=O)Nc1ccc2c(c1)N(C(=O)CCN1CCOCC1)c1ccccc1S2 [Moricizine hydrochloride]
Ranking score [2]: 1215.96 | B-score functional assay (B-score): 2.078

CO/N=C(\C(=O)N[C@@H]1C(=O)N2C(C(=O)OC(C)OC(C)=O)=C(COC(N)=O)CS[C@H]12)c1ccco1 (some centres unmarked) [Cefuroxime axetil]
Ranking score [2]: 621.898 | B-score functional assay: -0.317

N[C@@H](Cc1ccc(O)c(O)c1)C(=O)O [Levodopa]
Ranking score [1]: 265.141 | B-score functional assay: 0.049

CC1(C)[C@@H](OC(=O)CCC(=O)O)CC[C@]2(C)[C@H]3C(=O)C=C4[C@@H]5C[C@@](C)(C(=O)O)CC[C@]5(C)CC[C@@]4(C)[C@]3(C)CC[C@@H]12 [Carbenoxolone disodium salt]
Ranking score [1]: 79.4984 | B-score functional assay: -5.734

CC(=O)N(CC(C)C(=O)O)c1c(I)cc(I)c(N)c1I (centres unmarked) [Iocetamic acid]
Ranking score [1]: 232.635 | B-score functional assay: -0.783

CCCCCCCCCCCCCCCC[N+](C)(C)CCN(Cc1ccc(OC)cc1)c1ncccn1 [Thonzonium bromide]
Ranking score [1]: 50.5173 | B-score functional assay: -2.235

C[C@@H]1[C@H](O)[C@@H](C)/C=C/C=C/C=C/C=C/C=C/C=C/C=C/[C@H](O[C@@H]2O[C@H](C)[C@@H](O)[C@H](N)[C@@H]2O)C[C@@H]2O[C@](O)(C[C@@H](O)C[C@@H](O)[C@H](O)CC[C@@H](O)C[C@@H](O)CC(=O)O[C@H]1C)C[C@H](O)[C@H]2C(=O)O [Amphotericin B]
Ranking score [1]: 61.0819 | B-score functional assay: -7.097

CC[N+](CC)(CC)CCC(O)(c1ccccc1)C1CCCCC1.[Cl-] (centres unmarked) [Tridihexethyl chloride]
Ranking score [2]: 474.251 | B-score functional assay: 0.93

CCCCNc1c(C(=O)OCC)c(C)nc2c1cnn2CC.Cl [Tracazolate hydrochloride]
Ranking score [1]: 238.155 | B-score functional assay: -1.912

COc1cc2nc(N(C)CCCNC(=O)C3CCCO3)nc(N)c2cc1OC (centres unmarked) [Alfuzosin hydrochloride]
Ranking score [1]: 237.095 | B-score functional assay: -2.737

N=C(N)c1ccc(OCCCCCOc2ccc(C(=N)N)cc2)cc1 [Pentamidine isethionate]
Ranking score [2]: 489.028 | B-score functional assay: -0.233

CN(Cc1cnc2nc(N)nc(N)c2n1)c1ccc(C(=O)N[C@@H](CCC(=O)O)C(=O)O)cc1 (racemic) [Amethopterin (R,S)]
Ranking score [2]: 579.365 | B-score functional assay: -0.795

CC[C@H](C)[C@H]1O[C@]2(C=C[C@@H]1C)C[C@@H]1C[C@@H](C/C=C(\C)[C@@H](O[C@H]3C[C@H](OC)[C@@H](O[C@H]4C[C@H](OC)[C@@H](O)[C@H](C)O4)[C@H](C)O3)[C@@H](C)/C=C/C=C3\CO[C@@H]4[C@H](O)C(C)=C[C@@H](C(=O)O1)[C@]34O)O2 [Avermectin B1a]
Ranking score [1]: 51.7494 | B-score functional assay: -1.314

CCOC(=O)O[C@]1(C(=O)COC(=O)CC)CC[C@H]2[C@@H]3CCC4=CC(=O)C=C[C@]4(C)[C@H]3[C@@H](O)C[C@@]21C [Prednicarbate]
Ranking score [1]: 140.036 | B-score functional assay: -1.448

CC(CN(C)C)C(C)(O)Cc1ccc(Cl)cc1.Cl (centres unmarked) [Clobutinol hydrochloride]
Ranking score [2]: 492.244 | B-score functional assay: -0.006

CNc1ncnc2c1ncn2[C@@H]1O[C@H](CO)[C@@H](O)[C@H]1O [N6-methyladenosine]
Ranking score [2]: 568.625 | B-score functional assay: 0.107

C[C@H](CCC(=O)O)[C@H]1CC[C@H]2[C@@H]3CC[C@@H]4C[C@H](O)CC[C@]4(C)[C@H]3CC[C@]12C [litocholic acid]
position among the hits of the screen (combined ranking of both screening assays) (1280 drugs at 10 µM, TC uptake and Myrcludex B binding screens combined): ≤ 150

CC(=O)[C@H]1CC[C@H]2[C@@H]3CCC4=CC(=O)CC[C@]4(C)[C@H]3CC[C@]12C [Progesterone]
Ranking score [2]: 609.007 | B-score functional assay: 0.628

CC(C)(C)NCC(O)c1ccc(O)c(CO)c1 (centres unmarked) [Salbutamol]
Ranking score [1]: 275.042 | B-score functional assay: 1.838

CN(C)CCCN1c2ccccc2Sc2ccc(Cl)cc21 [Chlorpromazine hydrochloride]
Ranking score [1]: 173.367 | B-score functional assay: 1.542

Cc1cccc(Nc2ccccc2C(=O)O)c1C [Mefenamic acid]
Ranking score [1]: 180.289 | B-score functional assay: -1.919

Cc1c(C)c2c(c(C)c1O)CCC(C)(C(=O)O)O2 (centres unmarked) [Trolox]
Ranking score [1]: 114.263 | B-score functional assay: -2.983

CC(C)(C)NCC(O)COc1cccc2c1CCC(=O)N2 (centres unmarked) [Carteolol hydrochloride]
Ranking score [2]: 570.247 | B-score functional assay: -0.486

CC(=O)c1ccc2c(c1)N(CCCN1CCC(CCO)CC1)c1ccccc1S2 [Piperacetazine]
Ranking score [2]: 531.5 | B-score functional assay: -0.935

Nc1nc(Cl)nc2c1ncn2[C@H]1C[C@H](O)[C@@H](CO)O1 [Cladribine]
Ranking score [1]: 277.042 | B-score functional assay: -0.011

CS(=O)(=O)c1ccc(C2=C(c3ccccc3)C(=O)OC2)cc1 [Rofecoxib]
Ranking score [1]: 212.386 | B-score functional assay: 1.027

CCc1nc(N)nc(N)c1-c1ccc(Cl)cc1 [Pyrimethamine]
Ranking score [2]: 1154.81 | B-score functional assay (B-score): 2.36

Clc1ccc2c(c1)C(N1CCNCC1)=Nc1ccccc1O2 [Amoxapine]
Ranking score [2]: 604.055 | B-score functional assay: 0.589

CN(C)CCN1C(=O)c2ccccc2N(C)c2ccccc21.Cl [Dibenzepine hydrochloride]
Ranking score [2]: 501.825 | B-score functional assay: -0.713

C[C@H](CCC(=O)O)[C@H]1CC[C@H]2[C@@H]3[C@H](O)C[C@@H]4C[C@H](O)CC[C@]4(C)[C@H]3CC[C@]12C [Chenodiol]
Ranking score [1]: 40.9878 | B-score functional assay: -1.277
